Columns and labels:
Pseudomonas aeruginosa [1] = assay: Inhibition of LasR-dependent quorum sensing activity in Pseudomonas aeruginosa MH602 harboring GFP-fused […] LasB promoter assessed as inhibition of 3-oxo-dodecanoyl HSL-induced GFP expression at 500 uM measured after 24 hrs by fluorescence assay relative to control
Pseudomonas aeruginosa [2] = assay: Inhibition of LasR-dependent quorum sensing activity in Pseudomonas aeruginosa MH602 harboring GFP-fused […] LasB promoter assessed as inhibition of 3-oxo-dodecanoyl HSL-induced GFP expression at 2 mM measured after 8 hrs by fluorescence assay relative to control
Pseudomonas aeruginosa [3] = assay: Growth inhibition of Pseudomonas aeruginosa MH602 at 1 mM after 24 hrs relative to control; conditions: MH602, 24 h, read-out: GI
Pseudomonas aeruginosa [4] = assay: Growth inhibition of Pseudomonas aeruginosa MH602 at 500 uM after 24 hrs relative to control; conditions: MH602, 24 h, read-out: GI
Escherichia coli [5] = assay: Growth inhibition of Escherichia coli MT102 at 2 mM after 8 hrs relative to control; conditions: MT102, 8 h, read-out: GI
Pseudomonas aeruginosa [6] = assay: Growth inhibition of Pseudomonas aeruginosa MH602 at 2 mM after 8 hrs relative to control; conditions: MH602, 8 h, read-out: GI
Escherichia coli [7] = assay: Inhibition of LuxR-dependent quorum sensing activity in Escherichia coli MT102 harboring pJBA132 assessed as inhibition of OHHL-induced GFP expression at 500 uM measured after 8 hrs by fluorescence assay relative to control
Pseudomonas aeruginosa [8] = assay: Growth inhibition of Pseudomonas aeruginosa PA14 at 2 mM after 24 hrs relative to control; conditions: 2000 µM
Pseudomonas aeruginosa [9] = assay: Inhibition of LasR-dependent quorum sensing activity in Pseudomonas aeruginosa MH602 harboring GFP-fused […] LasB promoter assessed as inhibition of 3-oxo-dodecanoyl HSL-induced GFP expression at 1 mM measured after 8 hrs by fluorescence assay relative to control
Escherichia coli [10] = assay: Growth inhibition of Escherichia coli MT102 at 2 mM after 24 hrs relative to control; conditions: MT102, 24 h, read-out: GI
Escherichia coli [11] = assay: Growth inhibition of Escherichia coli MT102 at 1 mM after 8 hrs relative to control; conditions: MT102, 8 h, read-out: GI
Pseudomonas aeruginosa [12] = assay: Inhibition of LasR-dependent quorum sensing activity in Pseudomonas aeruginosa MH602 harboring GFP-fused […] LasB promoter assessed as inhibition of 3-oxo-dodecanoyl HSL-induced GFP expression at 500 uM measured after 8 hrs by fluorescence assay relative to control
Escherichia coli [13] = assay: Growth inhibition of Escherichia coli MT102 at 500 uM after 24 hrs relative to control; conditions: MT102, 24 h, read-out: GI
Pseudomonas aeruginosa [14] = assay: Inhibition of LasR-dependent quorum sensing activity in Pseudomonas aeruginosa MH602 harboring GFP-fused […] LasB promoter assessed as inhibition of 3-oxo-dodecanoyl HSL-induced GFP expression at 2 mM measured after 24 hrs by fluorescence assay relative to control
Escherichia coli [15] = assay: Growth inhibition of Escherichia coli MT102 at 1 mM after 24 hrs relative to control; conditions: MT102, 24 h, read-out: GI
Escherichia coli [16] = assay: Growth inhibition of Escherichia coli MT102 at 500 uM after 8 hrs relative to control; conditions: MT102, 8 h, read-out: GI
Pseudomonas aeruginosa [17] = assay: Growth inhibition of Pseudomonas aeruginosa MH602 at 2 mM after 24 hrs relative to control; conditions: MH602, 24 h, read-out: GI
Pseudomonas aeruginosa [18] = assay: Growth inhibition of Pseudomonas aeruginosa MH602 at 500 uM after 8 hrs relative to control; conditions: MH602, 8 h, read-out: GI
Escherichia coli [19] = assay: Inhibition of LuxR-dependent quorum sensing activity in Escherichia coli MT102 harboring pJBA132 assessed as inhibition of OHHL-induced GFP expression at 2 mM measured after 8 hrs by fluorescence assay relative to control
[20] = system: Pseudomonas aeruginosa PA14; assay: Inhibition of quorum sensing-regulated biofilm formation in Pseudomonas aeruginosa PA14 at 2 mM after overnight incubation by crystal violet staining based assay relative to control
Pseudomonas aeruginosa [21] = assay: Growth inhibition of Pseudomonas aeruginosa MH602 at 1 mM after 8 hrs relative to control; conditions: MH602, 8 h, read-out: GI
[22] = system: Pseudomonas aeruginosa PA14; assay: Inhibition of quorum sensing-regulated pyocyanin production in Pseudomonas aeruginosa PA14 at 2 mM after 24 hrs relative to control
Escherichia coli [23] = assay: Inhibition of LuxR-dependent quorum sensing activity in Escherichia coli MT102 harboring pJBA132 assessed as inhibition of OHHL-induced GFP expression at 1 mM measured after 8 hrs by fluorescence assay relative to control
Escherichia coli [24] = assay: Inhibition of LuxR-dependent quorum sensing activity in Escherichia coli MT102 harboring pJBA132 assessed as inhibition of OHHL-induced GFP expression at 1 mM measured after 24 hrs by fluorescence assay relative to control
Escherichia coli [25] = assay: Inhibition of LuxR-dependent quorum sensing activity in Escherichia coli MT102 harboring pJBA132 assessed as inhibition of OHHL-induced GFP expression at 2 mM measured after 24 hrs by fluorescence assay relative to control
Pseudomonas aeruginosa [26] = assay: Inhibition of LasR-dependent quorum sensing activity in Pseudomonas aeruginosa MH602 harboring GFP-fused […] LasB promoter assessed as inhibition of 3-oxo-dodecanoyl HSL-induced GFP expression at 1 mM measured after 24 hrs by fluorescence assay relative to control

CCCCCC(=O)CC(=O)N[C@H]1[C@H](OC(C)=O)O[C@H](COC(C)=O)[C@@H](OC(C)=O)[C@@H]1OC(C)=O
inhibition (Pseudomonas aeruginosa [1]): 3.3%
inhibition (Pseudomonas aeruginosa [2]): 18.9%
inhibition at 1000 µM (Pseudomonas aeruginosa [3]): 0%
inhibition at 500 µM (Pseudomonas aeruginosa [4]): 4.2%
inhibition at 2000 µM (Escherichia coli [5]): 9.2%
inhibition at 2000 µM (Pseudomonas aeruginosa [6]): 0%
inhibition (Escherichia coli [7]): 7.7%
growth inhibition (GI) (Pseudomonas aeruginosa [8]): Non-Toxic
inhibition (Pseudomonas aeruginosa [9]): 8.9%
inhibition at 2000 µM (Escherichia coli [10]): 20.8%
inhibition at 1000 µM (Escherichia coli [11]): 2.3%
inhibition (Pseudomonas aeruginosa [12]): 4.9%
inhibition at 500 µM (Escherichia coli [13]): 2.3%
inhibition (Pseudomonas aeruginosa [14]): 2.5%
inhibition at 1000 µM (Escherichia coli [15]): 13.2%
inhibition at 500 µM (Escherichia coli [16]): 0%
inhibition at 2000 µM (Pseudomonas aeruginosa [17]): 0%
inhibition at 500 µM (Pseudomonas aeruginosa [18]): 0%
inhibition (Escherichia coli [19]): 7.9%
inhibition [20]: 19.5%
inhibition at 1000 µM (Pseudomonas aeruginosa [21]): 0%
inhibition [22]: 1.9%
inhibition (Escherichia coli [23]): 2.1%

O=C(Cc1ccc(F)cc1)N[C@@H]1[C@@H](O)[C@H](O)[C@@H](CO)O[C@H]1O
inhibition (Pseudomonas aeruginosa [2]): 31.3%
inhibition at 1000 µM (Pseudomonas aeruginosa [3]): 3%
inhibition at 500 µM (Pseudomonas aeruginosa [4]): 1.4%
inhibition at 2000 µM (Escherichia coli [5]): 0%
inhibition at 2000 µM (Pseudomonas aeruginosa [6]): 0%
inhibition (Escherichia coli [7]): 2.4%
growth inhibition (GI) (Pseudomonas aeruginosa [8]): Non-Toxic
inhibition (Pseudomonas aeruginosa [9]): 29%
inhibition at 2000 µM (Escherichia coli [10]): 15.8%
inhibition at 1000 µM (Escherichia coli [11]): 0%
inhibition (Pseudomonas aeruginosa [12]): 9.2%
inhibition at 500 µM (Escherichia coli [13]): 19.4%
inhibition (Pseudomonas aeruginosa [14]): 2.9%
inhibition at 1000 µM (Escherichia coli [15]): 8.8%
inhibition at 500 µM (Escherichia coli [16]): 0%
inhibition at 2000 µM (Pseudomonas aeruginosa [17]): 0%
inhibition (Escherichia coli [24]): 2%
inhibition at 500 µM (Pseudomonas aeruginosa [18]): 0%
inhibition (Escherichia coli [19]): 12.6%
inhibition [20]: 5.1%
inhibition at 1000 µM (Pseudomonas aeruginosa [21]): 0%
inhibition [22]: 6.6%
inhibition (Escherichia coli [23]): 3.6%

O=C(Cc1ccc(Br)cc1)N[C@@H]1[C@@H](O)[C@H](O)[C@@H](CO)O[C@H]1O
inhibition (Pseudomonas aeruginosa [1]): 2.4%
inhibition (Pseudomonas aeruginosa [2]): 15.3%
inhibition at 1000 µM (Pseudomonas aeruginosa [3]): 1.6%
inhibition at 500 µM (Pseudomonas aeruginosa [4]): 1.8%
inhibition at 2000 µM (Escherichia coli [5]): 0%
inhibition at 2000 µM (Pseudomonas aeruginosa [6]): 0%
inhibition (Escherichia coli [7]): 11.9%
growth inhibition (GI) (Pseudomonas aeruginosa [8]): Non-Toxic
inhibition (Pseudomonas aeruginosa [9]): 14.3%
inhibition (Escherichia coli [25]): 1.1%
inhibition at 2000 µM (Escherichia coli [10]): 6.1%
inhibition at 1000 µM (Escherichia coli [11]): 0%
inhibition (Pseudomonas aeruginosa [12]): 6.6%
inhibition at 500 µM (Escherichia coli [13]): 3%
inhibition at 1000 µM (Escherichia coli [15]): 5.9%
inhibition at 500 µM (Escherichia coli [16]): 0%
inhibition at 2000 µM (Pseudomonas aeruginosa [17]): 4%
inhibition (Escherichia coli [24]): 4.6%
inhibition at 500 µM (Pseudomonas aeruginosa [18]): 0%
inhibition (Escherichia coli [19]): 15.2%
inhibition [20]: 17.3%
inhibition at 1000 µM (Pseudomonas aeruginosa [21]): 1.8%
inhibition [22]: 8.6%
inhibition (Escherichia coli [23]): 6.5%

CCCCCCCCCC(=O)N[C@H]1[C@H](OC(C)=O)O[C@H](COC(C)=O)[C@@H](OC(C)=O)[C@@H]1OC(C)=O
inhibition at 1000 µM (Pseudomonas aeruginosa [3]): 1.2%
inhibition at 500 µM (Pseudomonas aeruginosa [4]): 0%
inhibition at 2000 µM (Escherichia coli [5]): 30.6%
inhibition at 2000 µM (Pseudomonas aeruginosa [6]): 10.2%
growth inhibition (GI) (Pseudomonas aeruginosa [8]): Non-Toxic
inhibition (Pseudomonas aeruginosa [9]): 7%
inhibition (Escherichia coli [25]): 35.5%
inhibition at 2000 µM (Escherichia coli [10]): 15.9%
inhibition at 1000 µM (Escherichia coli [11]): 0%
inhibition (Pseudomonas aeruginosa [26]): 7.8%
inhibition (Pseudomonas aeruginosa [12]): 10.2%
inhibition at 500 µM (Escherichia coli [13]): 11.1%
inhibition (Pseudomonas aeruginosa [14]): 17.2%
inhibition at 1000 µM (Escherichia coli [15]): 12.6%
inhibition at 500 µM (Escherichia coli [16]): 12.8%
inhibition at 2000 µM (Pseudomonas aeruginosa [17]): 0%
inhibition (Escherichia coli [24]): 5.1%
inhibition at 500 µM (Pseudomonas aeruginosa [18]): 0%
inhibition (Escherichia coli [19]): 48.1%
inhibition [20]: 46.9%
inhibition at 1000 µM (Pseudomonas aeruginosa [21]): 7.8%

CC(=O)OC[C@H]1O[C@@H](OC(C)=O)[C@H](NC(=O)Cc2ccc(F)cc2)[C@@H](OC(C)=O)[C@@H]1OC(C)=O
inhibition (Pseudomonas aeruginosa [2]): 7.4%
inhibition at 1000 µM (Pseudomonas aeruginosa [3]): 0%
inhibition at 500 µM (Pseudomonas aeruginosa [4]): 0%
inhibition at 2000 µM (Escherichia coli [5]): 0%
inhibition at 2000 µM (Pseudomonas aeruginosa [6]): 0%
inhibition (Escherichia coli [7]): 14.1%
growth inhibition (GI) (Pseudomonas aeruginosa [8]): Non-Toxic
inhibition (Pseudomonas aeruginosa [9]): 7.3%
inhibition (Escherichia coli [25]): 61.1%
inhibition at 2000 µM (Escherichia coli [10]): 0%
inhibition at 1000 µM (Escherichia coli [11]): 0%
inhibition (Pseudomonas aeruginosa [26]): 4.3%
inhibition (Pseudomonas aeruginosa [12]): 5.9%
inhibition at 500 µM (Escherichia coli [13]): 11.8%
inhibition (Pseudomonas aeruginosa [14]): 5.7%
inhibition at 1000 µM (Escherichia coli [15]): 9.4%
inhibition at 500 µM (Escherichia coli [16]): 0%
inhibition at 2000 µM (Pseudomonas aeruginosa [17]): 0%
inhibition (Escherichia coli [24]): 1.3%
inhibition at 500 µM (Pseudomonas aeruginosa [18]): 0%
inhibition (Escherichia coli [19]): 17.1%
inhibition [20]: 45.6%
inhibition at 1000 µM (Pseudomonas aeruginosa [21]): 0%
inhibition (Escherichia coli [23]): 14%
